# Experimental data published in ChEMBL document CHEMBL2176960, “Mechanism-based inactivation (MBI) of cytochrome P450 enzymes: structure-activity relationships and discovery strategies to mitigate drug-drug interaction risks” (J Med Chem, 2012).
# Columns and labels:
# [1] = target: T1, CYP3A4 (Homo sapiens, UniProt P08684); test: Inhibition of CYP3A4-mediated testosterone 6 beta hydroxylation in human liver microsome by Dixon plot analysis; assay type: ADME; settings: liver microsomes, probe testosterone (6 beta-hydroxylation)
# T1 sequence (P08684 whole entry): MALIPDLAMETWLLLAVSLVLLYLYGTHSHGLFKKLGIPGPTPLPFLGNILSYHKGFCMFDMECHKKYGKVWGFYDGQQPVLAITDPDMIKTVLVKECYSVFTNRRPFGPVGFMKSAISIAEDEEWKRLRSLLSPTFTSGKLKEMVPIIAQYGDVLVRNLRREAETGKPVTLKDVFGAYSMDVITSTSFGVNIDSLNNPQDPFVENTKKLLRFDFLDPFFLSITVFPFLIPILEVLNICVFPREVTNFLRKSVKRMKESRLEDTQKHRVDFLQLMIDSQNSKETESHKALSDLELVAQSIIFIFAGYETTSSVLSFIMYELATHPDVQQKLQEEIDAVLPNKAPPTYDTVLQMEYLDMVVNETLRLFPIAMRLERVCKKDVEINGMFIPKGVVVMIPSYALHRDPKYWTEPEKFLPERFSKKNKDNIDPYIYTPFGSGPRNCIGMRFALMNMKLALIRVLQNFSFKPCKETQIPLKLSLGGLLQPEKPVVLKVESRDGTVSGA
# [2] = target: T2, Cytochrome P450 3A4 (Homo sapiens, UniProt P08684); test: Time dependent inhibition of CYP3A4-mediated testosterone-6-beta hydroxylation in human liver microsome; assay type: ADME
# T2 sequence (P08684 whole entry): as above
# [3] = organism: Homo sapiens; test: Inhibition of CYP2B6 in human assessed as decrease of hydroxybupropion metabolite systemic exposure; assay type: ADME, organism-based; parameters: scale not given: the % may be the effect or the level left; settings: in vivo
# [4] = organism: Homo sapiens; test: Inhibition of CYP2B6 in human assessed as increase of bupropion systemic exposure; assay type: ADME, organism-based; parameters: scale not given: the % may be the effect or the level left; settings: in vivo
# [5] = target: T1, CYP3A4; test: (§1) Inhibition of CYP3A4 in human liver microsomes in presence of NADPH; assay type: ADME, Microsome; settings: human, liver microsomes
# [6] = target: T2, Cytochrome P450 3A4; test: as §1; assay type: ADME, Microsome
# [7] = target: T3, Cytochrome P450 2C8 (Homo sapiens, UniProt P10632); test: Inhibition of CYP2C8 in human liver microsomes in presence of NADPH; assay type: ADME, Microsome
# T3 sequence (P10632 whole entry): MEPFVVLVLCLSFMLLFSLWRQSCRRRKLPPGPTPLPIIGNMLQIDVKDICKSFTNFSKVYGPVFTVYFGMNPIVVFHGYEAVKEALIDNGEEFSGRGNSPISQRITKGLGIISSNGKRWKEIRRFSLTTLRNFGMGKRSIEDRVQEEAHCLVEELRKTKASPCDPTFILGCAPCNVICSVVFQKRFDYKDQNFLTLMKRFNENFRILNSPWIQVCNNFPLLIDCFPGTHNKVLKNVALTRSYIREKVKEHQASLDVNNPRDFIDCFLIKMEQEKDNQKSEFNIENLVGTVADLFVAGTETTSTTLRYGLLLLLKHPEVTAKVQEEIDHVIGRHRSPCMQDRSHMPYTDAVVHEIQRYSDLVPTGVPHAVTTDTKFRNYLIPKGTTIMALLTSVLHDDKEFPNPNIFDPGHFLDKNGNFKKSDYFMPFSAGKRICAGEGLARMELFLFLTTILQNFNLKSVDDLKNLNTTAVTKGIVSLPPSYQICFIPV
# [8] = target: T3, Cytochrome P450 2C8; test: Inhibition of CYP2C8; assay type: ADME
# [9] = target: T4, CYP2C8 (Homo sapiens, UniProt P10632); test: (§2) Time dependent inhibition of CYP2C8 in human liver microsomes; assay type: ADME, Microsome; settings: human, liver microsomes
# T4 sequence (P10632 whole entry): T3 sequence (P10632 whole entry)
# [10] = target: T3, Cytochrome P450 2C8; test: as §2; assay type: ADME, Microsome
# [11] = target: T1, CYP3A4; test: (§3) Time dependent inhibition of CYP3A4; assay type: ADME
# [12] = target: T2, Cytochrome P450 3A4; test: as §3; assay type: ADME
# [13] = Lipophilicity, log D of the compound; assay type: physicochemical; settings: octanol/water
# [14] = Oral bioavailability in human; assay type: ADME, organism-based; settings: in vivo
# [15] = Clearance in human; assay type: ADME, organism-based; settings: in vivo
# [16] = target: CYP2C19 (Homo sapiens, UniProt P33261); test: (§4) Time dependent inhibition of CYP2C19
# Sequence of CYP2C19 (P33261 whole entry): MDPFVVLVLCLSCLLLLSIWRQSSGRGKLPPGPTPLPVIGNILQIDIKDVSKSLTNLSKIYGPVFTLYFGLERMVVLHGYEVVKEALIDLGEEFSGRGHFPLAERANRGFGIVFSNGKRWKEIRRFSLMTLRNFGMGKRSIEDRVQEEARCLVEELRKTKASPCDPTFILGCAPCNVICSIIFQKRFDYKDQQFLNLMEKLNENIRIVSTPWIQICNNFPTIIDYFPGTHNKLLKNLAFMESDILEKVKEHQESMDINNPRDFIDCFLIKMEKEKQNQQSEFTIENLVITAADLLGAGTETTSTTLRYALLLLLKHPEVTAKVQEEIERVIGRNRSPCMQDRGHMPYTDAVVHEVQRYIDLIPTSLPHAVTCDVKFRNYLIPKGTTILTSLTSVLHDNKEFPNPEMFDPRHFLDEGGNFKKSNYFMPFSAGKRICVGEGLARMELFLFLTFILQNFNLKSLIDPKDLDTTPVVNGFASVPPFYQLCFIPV
# [17] = target: Cytochrome P450 2C19 (Homo sapiens, UniProt P33261); test: as §4
# Sequence of Cytochrome P450 2C19 (P33261 whole entry): as above
# [18] = target: T3, Cytochrome P450 2C8; test: Reversible inhibition of CYP2C8 in human liver microsomes; assay type: ADME, Microsome
# [19] = target: Cytochrome P450 2C9 (Homo sapiens, UniProt P11712); test: Reversible inhibition of CYP2C9 in human liver microsomes; assay type: ADME, Microsome
# Sequence of Cytochrome P450 2C9 (P11712 whole entry): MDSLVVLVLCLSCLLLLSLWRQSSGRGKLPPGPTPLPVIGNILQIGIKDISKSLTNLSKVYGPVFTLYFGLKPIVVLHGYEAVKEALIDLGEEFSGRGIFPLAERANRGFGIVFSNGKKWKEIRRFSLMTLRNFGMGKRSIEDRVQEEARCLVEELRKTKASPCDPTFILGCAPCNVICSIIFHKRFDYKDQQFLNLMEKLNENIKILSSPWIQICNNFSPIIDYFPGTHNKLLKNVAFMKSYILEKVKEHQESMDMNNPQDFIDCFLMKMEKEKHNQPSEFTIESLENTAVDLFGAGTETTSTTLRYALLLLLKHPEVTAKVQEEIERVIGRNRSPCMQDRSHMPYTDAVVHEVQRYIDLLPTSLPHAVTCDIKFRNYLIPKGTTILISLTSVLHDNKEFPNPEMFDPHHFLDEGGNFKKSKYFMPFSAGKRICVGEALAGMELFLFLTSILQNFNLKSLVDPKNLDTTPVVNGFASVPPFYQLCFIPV
# [20] = Half life in human; assay type: ADME, organism-based; settings: in vivo
# [21] = target: T1, CYP3A4; test: (§5) Time dependent inhibition of CYP3A4 in human liver microsomes; assay type: ADME, Microsome; settings: human, liver microsomes
# [22] = target: T2, Cytochrome P450 3A4; test: as §5; assay type: ADME, Microsome
smiles,measurement,setting,value
CC(C)CN(C[C@@H](O)[C@H](Cc1ccccc1)NC(=O)O[C@H]1CCOC1)S(=O)(=O)c1ccc(N)cc1,kinact,[1],0.00983 s⁻¹
same,Ki,[2],0.37 µM
CC(=O)Oc1cc2c(s1)CCN(C(C(=O)C1CC1)c1ccccc1F)C2 (stereo not given),Activity,[3],23%
same,Activity,[4],18%
COc1cc(CC(=O)O)ccc1Oc1ccc2[nH]c(C)cc2c1NS(=O)(=O)c1ccc(Cl)cc1Cl,kinact,[5],0.00267 s⁻¹
same,Ki,[6],18 µM
Cc1ccc(C)c(OCCCC(C)(C)C(=O)O[C@@H]2O[C@H](C(=O)O)[C@@H](O)[C@H](O)[C@H]2O)c1,IC50,[7],1.8 µM
same,IC50,[8],4.1 µM
same,kinact,[9],0.0035 s⁻¹
same,Ki,[10],20 µM
CC(C)(C)NC(=O)C1(C2CCCCC2)CCN(C(=O)[C@@H](Cc2ccc(Cl)cc2)NC(=O)[C@H]2CCc3ccccc3[C@H]2N)CC1,kinact,[11],0.00133 s⁻¹
same,Ki,[12],23 µM
O=C1CCc2ccc(OCCCCN3CCN(c4cccc(Cl)c4Cl)CC3)cc2N1 [ARIPIPRAZOLE],logD,[13],5.54
same,bioavailability,[14],87%
same,clearance,[15],0.8 mL/min/kg
COC(=O)[C@H](c1ccccc1Cl)N1CCc2sccc2C1 [CLOPIDOGREL],Activity,[3],52%
same,kinact,[16],0.000917 s⁻¹
same,Ki,[17],14.3 µM
same,Activity,[4],60%
Cc1ccc(C)c(OCCCC(C)(C)C(=O)O)c1 [GEMFIBROZIL],IC50,[18],95 µM
same,IC50,[19],9.6 µM
same,IC50,[8],28 µM
CCc1nn(CCCN2CCN(c3cccc(Cl)c3)CC2)c(=O)n1CCOc1ccccc1 [NEFAZODONE],logD,[13],3.43
same,bioavailability,[14],20%
same,half-life,[20],1 h
CN(c1ncccc1CNc1nc(Nc2ccc3c(c2)CC(=O)N3)ncc1C(F)(F)F)S(C)(=O)=O [PF-00562271],kinact,[21],0.00383 s⁻¹
same,Ki,[22],12 µM
Clc1ccccc1CN1CCc2sccc2C1 [TICLOPIDINE],Activity,[3],84%
same,Activity,[4],85%
O=c1n(CCCN2CCN(c3cccc(Cl)c3)CC2)nc2ccccn12 [TRAZODONE],logD,[13],1.58
